Paper PMC11249646, “Small-Molecule Disruptors of the Interaction between Calcium- and Integrin-Binding Protein 1 and Integrin αIIbβ3 as Novel Antiplatelet Agents” (ACS Pharmacology & Translational Science, 2024)
pIC50: −log10 of the molar value. Like-named read-outs stand apart in the source and are kept apart here.

Legend:
[1] = molecular target: T1, CIB1 and αIIb interaction (CIB1-GST : F-αIIb peptide) (Homo sapiens, UniProt Q99828); assay: FP assay, 1536-well qHTS format (primary and confirmatory screen); type: binding; conditions: for Curve Class (confirmatory screen) / CONFIRMATORY SCREEN Curve Class: qHTS curve class; for IC50: read-out: IC50 [μM] (confirmatory screen)
T1 construct: made in house; host or cells: BL-21 plus RIL cells (E. coli)
T1 sequence (Q99828 1-191): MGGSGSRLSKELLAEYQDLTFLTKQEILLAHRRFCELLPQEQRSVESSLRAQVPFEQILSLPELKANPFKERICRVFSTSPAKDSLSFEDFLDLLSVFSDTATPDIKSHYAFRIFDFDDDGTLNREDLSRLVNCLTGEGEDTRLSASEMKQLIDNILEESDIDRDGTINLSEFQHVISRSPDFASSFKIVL

[2] = molecular target: T2, GST-CIB1 : F-scrambled peptide (Homo sapiens, UniProt Q99828); assay: FP scrambled-peptide counter screen, 1536-well format; type: binding; conditions: for Curve Class (counterscreen) / COUNTERSCREEN Curve Class: qHTS curve class; for IC50: read-out: IC50 [μM] (counterscreen)
T2 construct: made in house; host or cells: BL-21 plus RIL cells (E. coli)
T2 sequence (Q99828 1-191): T1 sequence (Q99828 1-191)

[3] = Table S3, confirmatory screen, a negative sign marks inhibitory curves
[4] = Table S3, confirmatory screen, negative = inhibition
[5] = qHTS FP screen hits, Table S2, negative = inhibition
[6] = qHTS FP screen hits, Table S2, one class per curve where COUNT > 1, negative sign = inhibitory curve
[7] = qHTS FP screen hits, Table S2, read-out: IC50
[8] = Table S3, counterscreen, YES/NO call
[9] = Table S3, counterscreen, a negative sign marks inhibitory curves
[10] = Table S3, counterscreen, negative = inhibition
[11] = qHTS primary screen hits, Table S2, negative = inhibition
[12] = qHTS primary screen hits, Table S2, negative sign = inhibitory curve, several classes where COUNT > 1
[13] = qHTS primary screen hits, Table S2, read-out: IC50
[14] = Table S3, confirmatory screen, YES/NO call
[15] = confirmatory screen, negative sign = inhibitory curve
[16] = counterscreen, negative sign = inhibitory curve
[17] = scrambled-peptide counterscreen

SMILES | Curve Class (confirmatory screen) [1, 3] | Efficacy (%) (confirmatory screen) [1, 4] | Efficacy (%) [1, 5] | Curve Class [1, 6] | pIC50 [1, 7] | Curve Class (counterscreen) [2, 9] | Efficacy (%) (counterscreen) [2, 10] | Efficacy (%) [1, 11] | Curve Class [1, 12] | pIC50 [1, 13] | Efficacy (%) (confirmatory screen) ([1]; confirmatory screen) | Confirm? (confirmatory screen) ([1]; confirmatory screen, YES/NO) | Curve Class (confirmatory screen) [1, 15] | Efficacy (%) (counterscreen) ([2]; counterscreen) | Curve Class (counterscreen) [2, 16] | IC50 ([1]; confirmatory screen) | IC50 ([2]; counterscreen) | also measured
CN(C)CC1CCCN(C2CCN(C(=O)c3cccc(-c4cc(O)c5ncccc5c4)c3)CC2)C1.O=C(O)C(F)(F)F (stereo not drawn) [NCGC00247737-01] | 4 | -41% | -45% | -1.2 | 4.65 | -2.2 | -46% |  |  |  |  |  |  |  |  |  |  | Confirm? (counterscreen) [2, 8]: YES; IC50 ([2]; Table S3, counterscreen): 39.8 µM
O=C(O)C(F)(F)F.O=C1Nc2ccccc2/C1=N/NC(=S)Nc1cccnc1 [NCGC00242647-01] |  |  |  |  |  |  |  | -32% | -1.4 | 4.75 |  |  |  |  |  |  |  | CONFIRMATORY SCREEN Efficacy (%) ([1]; confirmatory screen): -44%; CONFIRMATORY SCREEN Curve Class ([1]; confirmatory screen): 4; COUNTERSCREEN Efficacy (%) ([2]; counterscreen): -17%; COUNTERSCREEN Curve Class ([2]; counterscreen): 4
Cc1cc(NS(=O)(=O)c2ccc(NC(=O)Cc3ccc(F)c(Cl)c3)cc2)no1.O=C(O)C(F)(F)F [NCGC00244873-01] |  |  | -25% |  | 5.00 |  |  |  |  |  |  |  |  |  |  |  |  | CONFIRMATORY SCREEN Efficacy (%) ([1]; confirmatory screen): -48%; CONFIRMATORY SCREEN Curve Class ([1]; confirmatory screen): 4; COUNTERSCREEN Efficacy (%) ([2]; counterscreen): -17%; COUNTERSCREEN Curve Class ([2]; counterscreen): 4
O=C(O)C(F)(F)F.O=C1Nc2ccccc2/C1=N/NC(=S)NCc1ccccc1 [NCGC00229543-01] | 4 | -33% |  |  |  | 4 | -27% | -24% | -1.4 | 5.10 |  |  |  |  |  |  |  | 
C[C@@H](NCc1cc2ccccc2[nH]1)c1cccc2ccccc12.Cl [NCGC00344505-01] | 4 | -25% |  |  |  | 4 | -21% | -31% | -2.4 | 4.67 |  |  |  |  |  |  |  | 
C[C@@H]1CC[C@]2(C)C3(C)CC[C@@]2(OC3=O)[C@@]12C[C@H](c1ccoc1)OC2=O [NCGC00180662-03] | -1.2 | -44% | -33% | -1.2 | 5.00 | -1.2 | -44% |  |  |  |  |  |  |  |  |  |  | Confirm? (confirmatory screen) [1, 14]: YES; IC50 ([1]; Table S3, confirmatory screen): 7.1 µM; IC50 ([2]; Table S3, counterscreen): 8.9 µM
O=C(O)C(F)(F)F.O=S(=O)(Nc1nc2ccccc2s1)c1ccc(NCc2ccc(Br)cc2O)cc1 [NCGC00319026-01] |  |  | -50% | -2.2 | 4.40 |  |  |  |  |  | -45% | YES | -2.4 | -15% | 4 |  |  | Confirm? (counterscreen) ([2]; counterscreen, YES/NO): YES
COC(=O)c1cc(Cl)ccc1NS(=O)(=O)C(F)(F)F [NCGC00249937-01] | 4 | 12% |  |  |  | 4 | -16% | -64% | -2.2 | 4.35 |  |  |  |  |  |  |  | 
CC(C)(C)OC(=O)CC(=O)NNC(=O)c1nc2ccccc2[nH]1 [NCGC00181234-01] |  |  |  |  |  |  |  | -37% |  | 4.40 |  |  |  |  |  |  |  | CONFIRMATORY SCREEN Efficacy (%) ([1]; confirmatory screen): -10%; CONFIRMATORY SCREEN Curve Class ([1]; confirmatory screen): 4; Curve Class ([1]; qHTS primary screen hits, Table S2, negative sign = inhibitory curve): -2.4; COUNTERSCREEN Efficacy (%) ([2]; counterscreen): -21%; COUNTERSCREEN Curve Class ([2]; counterscreen): 4
CC1=C(O)C(=O)C=C2C1=CC=C1[C@@]2(C)CC[C@@]2(C)[C@@H]3C[C@](C)(C(=O)O)CC[C@]3(C)CC[C@]12C [NCGC00178913-04] |  |  | -84% | -3 | 4.47 |  |  |  |  |  | -135% | YES | -1.1 | -107% | -2.1 | 22.4 µM | 44.7 µM | 
CC1=C[C@@H]2[C@H]([C@@H](O)C[C@@]3(C)[C@H]2C[C@@H](C)[C@]3(O)C(=O)CO)[C@@]2(C)Cc3cnn(-c4ccccc4)c3C=C12 [NCGC00242505-01] |  |  |  |  |  |  |  | -30% |  | 4.42 | -46% | YES | -1.4 | -41% | -1.2 | 15.8 µM | 12.6 µM | 
NC(=O)c1ncn([C@@H]2O[C@H](CO)[C@@H](O)[C@H]2O)c1O [NCGC00094087-05] |  |  |  |  |  |  |  | -52% | -1.2 | 4.70 |  |  |  |  |  |  |  | CONFIRMATORY SCREEN Efficacy (%) ([1]; confirmatory screen): -5.43%; CONFIRMATORY SCREEN Curve Class ([1]; confirmatory screen): 4; COUNTERSCREEN Efficacy (%) ([2]; counterscreen): 0%; COUNTERSCREEN Curve Class ([2]; counterscreen): 4
O=C1c2ccccc2C(=O)c2c1ccc(O)c2O [NCGC00095227-06] | -1.1 | -175% | -161% | -2.1 | 4.45 | -2.1 | -195% |  |  |  |  |  |  |  |  |  |  | Confirm? (confirmatory screen) [1, 14]: YES; IC50 ([1]; Table S3, confirmatory screen): 17.8 µM; IC50 ([2]; Table S3, counterscreen): 22.4 µM
CCC(OC(=O)c1ccc(S(C)(=O)=O)c([N+](=O)[O-])c1)C(=O)NC1C2CC3CC(C2)CC1C3 (stereo not drawn) [NCGC00188536-01] |  |  |  |  |  |  |  | -27% | -1.4 | 5.85 |  |  |  |  |  |  |  | CONFIRMATORY SCREEN Confirm? ([1]; confirmatory screen, YES/NO call): YES; CONFIRMATORY SCREEN Curve Class [1, 15]: -1.4; CONFIRMATORY SCREEN Efficacy (%) ([1]; confirmatory screen, negative = inhibition): -52%; pIC50 ([1]; confirmatory screen, read-out: CONFIRMATORY SCREEN IC50): 5.60; COUNTERSCREEN Efficacy (%) [2, 17]: -50%; COUNTERSCREEN Confirm? ([2]; scrambled-peptide counterscreen, YES/NO call): YES; COUNTERSCREEN Curve Class [2, 17]: -2.2; pIC50 ([2]; scrambled-peptide counterscreen, read-out: COUNTERSCREEN IC50): 4.50
Cc1ccc(C)n1-c1sccc1C(=O)O [NCGC00253437-01] |  |  |  |  |  |  |  | -59% | -2.2 | 4.35 | -97% | YES | -1.1 | -36% | -1.2 | 22.4 µM | 7.9 µM | Confirm? (counterscreen) ([2]; counterscreen, YES/NO): YES
Nc1nc2c(s1)C(c1ccccc1)CC(=O)N2 (stereo not drawn) [NCGC00422009-03] | 4 | -35% |  |  |  | -2.4 | -45% | -83% | -2.2 | 4.10 |  |  |  |  |  |  |  | Confirm? (counterscreen) [2, 8]: YES; IC50 ([2]; Table S3, counterscreen): 39.8 µM
O=C(O)c1ccc(-n2cccc2/C=C2\SC(=O)N(Cc3cccc(Cl)c3)C2=O)cc1 [NCGC00182735-01] |  |  | -66% | -2.2 |  |  |  |  |  |  | -109% | YES | -2.1 | -61% | -2.2 |  | 56.2 µM | 
Cl.N=C(NCCCCCCNC(=N)NC(=N)Nc1ccc(Cl)cc1)NC(=N)Nc1ccc(Cl)cc1 [NCGC00016246-13] |  |  | -37% | -2.2 | 4.30 |  |  |  |  |  | -57% | YES | -2.2 | -37% | -1.2 | 35.5 µM | 22.4 µM | 
CNc1ccc(C(=O)Oc2cc(ON=[N+]([O-])N(C)C)c([N+](=O)[O-])cc2[N+](=O)[O-])cc1 [NCGC00168169-02] |  |  | -30% | -1.2 | 4.65 |  |  |  |  |  | -42% | YES | -1.2 | -40% | -2.2 | 14.1 µM | 39.8 µM | 
CCCC(=O)c1cc(O)c(O)cc1O [NCGC00091839-03] |  |  | -92% |  | 3.98 |  |  |  |  |  | -145% | YES | -1.1 | -107% | -1.1 | 35.5 µM | 31.6 µM | 
COc1nc2ccc(Br)cc2cc1[C@@H](c1ccccc1)[C@@](O)(CCN(C)C)c1cccc2ccccc12 [NCGC00348215-04] |  |  | -64% | -2.2 | 4.30 |  |  |  |  |  | -94% | YES | -2.2 | -83% | -2.2 | 89.1 µM | 89.1 µM | 
